Reference: patent EP2402012B1, “Liquid formulations of rupatadine fumarate” (J. Uriach y Compania S.A., priority 2010, dated 2012)
Structures can show the parent of a compound that is named as a salt.

How the values were obtained:
[1] = Rate of formation of Compound II in aqueous solutions of rupatadine fumarate on storage (HPLC, Method 2); type: physicochemical; conditions: aqueous solution 1 g(rupatadine fumarate)/L
Procedure: The HPLC method used to determine the % Compound II present in a formulation is based on the European Pharmacopoeia 2.2.29 using the following conditions: • room temperature and atmospheric pressure • column: C1810 µm (3.9 mm x 30 cm) • eluent: Methanol - Phosphate buffer solution pH 4.2 (75:25) • eluent flow: 1.3 mL/min • detection: UV-Visible spectrophotometer at 265 nm • retention time of Rupatadine: aprox. 8.9 min • relative retention time of Compound II: aprox. 0.43 Reference standard solutions of rupatadine and Compound II (which can be prepared as described in Reference Example 3) are used in the identification of the components. The test sample is compared to the equivalent placebo (same formulation without rupatadine fumarate) to check overlapping peaks with other excipients in the formulation. The % Compound II is calculated as 100*(area of Compound II peak)/(area of rupatadine peak). Different aqueous solutions comprising rupatadine fumarate at a concentration of 1 g(rupatadine fumarate)/L at different pH (3.41, 4.38 and 5.00), obtained adding the required amount of solutions of HCl(aq) or NaOH(aq) to solutions containing only water and rupatadine fumarate, were stored at different temperature conditions (room temperature and 40°C/75%HR) during two months and analyzed at the beginning, at one month and at the end of the period using Method 2, see table below.

[2] = Solubility of rupatadine fumarate in water and in buffer solutions at different pH; type: physicochemical; conditions: water; 25 g/L added, stirring 16 - 24 h, filtered; room temperature
Procedure: The solubility of rupatadine fumarate was determined by adding 25 g/L of rupatadine fumarate to water and stirring during 16 - 24 h. The resulting solution was filtered and the amount of rupatadine determined using the Method 2. Using the same procedure, but using buffer solutions of known pH instead of water, the solubility of rupatadine fumarate at different pH was determined (the pH of the solution was measured prior to the addition of rupatadine fumarate).

Cc1cncc(CN2CCC(=C3c4ccc(Cl)cc4CCc4cccnc43)CC2)c1 [rupatadine fumarate]
% Compound II 1 month ([1]; pH 3.41, 25 ± 2°C): 0.174%
% Compound II 1 month ([1]; pH 3.41, 40 ± 2°C): 0.737%
% Compound II 2 months ([1]; pH 3.41, 25 ± 2°C): 0.276%
% Compound II 2 months ([1]; pH 3.41, 40 ± 2°C): 1.396%
% Compound II initial ([1]; pH 3.41): 0.035%
% Compound II 1 month ([1]; pH 4.38, 25 ± 2°C): 0.090%
% Compound II 1 month ([1]; pH 4.38, 40 ± 2°C): 0.357%
% Compound II 2 months ([1]; pH 4.38, 25 ± 2°C): 0.142%
% Compound II 2 months ([1]; pH 4.38, 40 ± 2°C): 0.646%
% Compound II initial ([1]; pH 4.38): 0.036%
% Compound II 1 month ([1]; pH 5.00, 25 ± 2°C): 0.039%
% Compound II 1 month ([1]; pH 5.00, 40 ± 2°C): 0.112%
% Compound II 2 months ([1]; pH 5.00, 25 ± 2°C): 0.051%
% Compound II 2 months ([1]; pH 5.00, 40 ± 2°C): 0.182%
% Compound II initial ([1]; pH 5.00): 0.040%
solubility [2]: 2900 µg/mL
